Results as given in ChEMBL document CHEMBL1201862, “PubChem BioAssay data set” (2004).
Activity calls are given as the source filed them.

Tests used:
[1] = intracellular Trypanosoma cruzi inhibitors in host cells – cell-based, plate reader, cherry-pick samples, set 3, dose response (AID 651818); assay type: functional;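 note: compounds incubated with infected cells for about four days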
[2] = target: T1, Sentrin-specific protease 7 (Homo sapiens, UniProt Q9BQF6); assay type: functional;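 note: Luminescence-based dose-response confirmation of ultra-high-throughput screening hits, measuring inhibition of SENP7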
T1 sequence (Q9BQF6 whole entry): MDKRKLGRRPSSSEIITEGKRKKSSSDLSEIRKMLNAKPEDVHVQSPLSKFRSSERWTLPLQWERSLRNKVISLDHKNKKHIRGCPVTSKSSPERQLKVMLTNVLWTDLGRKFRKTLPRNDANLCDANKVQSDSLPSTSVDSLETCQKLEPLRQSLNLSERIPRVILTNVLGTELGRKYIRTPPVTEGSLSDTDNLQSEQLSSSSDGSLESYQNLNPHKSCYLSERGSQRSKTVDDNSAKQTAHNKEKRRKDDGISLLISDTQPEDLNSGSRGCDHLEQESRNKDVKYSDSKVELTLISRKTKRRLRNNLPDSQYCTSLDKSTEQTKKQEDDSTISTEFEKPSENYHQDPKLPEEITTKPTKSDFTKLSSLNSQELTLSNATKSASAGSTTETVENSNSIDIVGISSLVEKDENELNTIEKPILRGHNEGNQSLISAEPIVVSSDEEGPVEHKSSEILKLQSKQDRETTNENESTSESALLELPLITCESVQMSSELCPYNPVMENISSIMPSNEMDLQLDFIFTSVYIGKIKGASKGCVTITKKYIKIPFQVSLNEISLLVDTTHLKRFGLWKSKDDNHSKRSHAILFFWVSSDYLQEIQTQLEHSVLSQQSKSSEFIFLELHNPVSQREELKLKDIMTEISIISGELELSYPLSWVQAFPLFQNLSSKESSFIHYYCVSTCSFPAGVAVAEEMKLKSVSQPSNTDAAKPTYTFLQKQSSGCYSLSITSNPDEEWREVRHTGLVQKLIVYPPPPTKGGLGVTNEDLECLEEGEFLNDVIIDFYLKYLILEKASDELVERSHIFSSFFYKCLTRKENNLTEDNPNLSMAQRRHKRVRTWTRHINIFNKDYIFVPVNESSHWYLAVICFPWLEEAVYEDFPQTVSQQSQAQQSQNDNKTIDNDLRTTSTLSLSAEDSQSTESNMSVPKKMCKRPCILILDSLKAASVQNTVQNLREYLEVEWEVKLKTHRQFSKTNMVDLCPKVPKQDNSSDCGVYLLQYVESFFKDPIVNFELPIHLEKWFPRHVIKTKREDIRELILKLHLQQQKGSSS

Caspase-3 = target: T2, Caspase-3 (Homo sapiens, UniProt P42574); assay type: functional;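 note: Dose-response selectivity test against caspase-3 for candidate inhibitors of sentrin-specific proteases (SENPs)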
T2 sequence (P42574 whole entry): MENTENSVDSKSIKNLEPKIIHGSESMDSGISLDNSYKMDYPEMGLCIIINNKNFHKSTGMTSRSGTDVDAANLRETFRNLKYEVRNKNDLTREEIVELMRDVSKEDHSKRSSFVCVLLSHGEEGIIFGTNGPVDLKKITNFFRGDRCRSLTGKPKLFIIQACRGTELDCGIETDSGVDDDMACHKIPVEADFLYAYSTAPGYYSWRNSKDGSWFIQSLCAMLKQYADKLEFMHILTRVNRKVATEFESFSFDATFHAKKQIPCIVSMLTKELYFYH

[3] = target: T3, Sentrin-specific protease 8 (Homo sapiens, UniProt Q96LD8); assay type: functional;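 note: luminescence read-out of SENP8 inhibition, dose-response confirmation following an ultra-high-throughput screen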
T3 sequence (Q96LD8 whole entry): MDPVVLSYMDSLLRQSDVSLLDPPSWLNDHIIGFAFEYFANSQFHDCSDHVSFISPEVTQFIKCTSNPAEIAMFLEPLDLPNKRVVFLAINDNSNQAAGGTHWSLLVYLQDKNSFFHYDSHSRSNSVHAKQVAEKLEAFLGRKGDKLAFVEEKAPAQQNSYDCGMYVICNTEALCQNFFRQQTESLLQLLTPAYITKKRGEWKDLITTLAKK

[4] = target: T4, Sentrin-specific protease 6 (Homo sapiens, UniProt Q9GZR1); assay type: functional;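 note: Luminescence-based dose-response confirmatory assay of SENP6 inhibition, following up an ultra-high-throughput screen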
T4 sequence (Q9GZR1 whole entry): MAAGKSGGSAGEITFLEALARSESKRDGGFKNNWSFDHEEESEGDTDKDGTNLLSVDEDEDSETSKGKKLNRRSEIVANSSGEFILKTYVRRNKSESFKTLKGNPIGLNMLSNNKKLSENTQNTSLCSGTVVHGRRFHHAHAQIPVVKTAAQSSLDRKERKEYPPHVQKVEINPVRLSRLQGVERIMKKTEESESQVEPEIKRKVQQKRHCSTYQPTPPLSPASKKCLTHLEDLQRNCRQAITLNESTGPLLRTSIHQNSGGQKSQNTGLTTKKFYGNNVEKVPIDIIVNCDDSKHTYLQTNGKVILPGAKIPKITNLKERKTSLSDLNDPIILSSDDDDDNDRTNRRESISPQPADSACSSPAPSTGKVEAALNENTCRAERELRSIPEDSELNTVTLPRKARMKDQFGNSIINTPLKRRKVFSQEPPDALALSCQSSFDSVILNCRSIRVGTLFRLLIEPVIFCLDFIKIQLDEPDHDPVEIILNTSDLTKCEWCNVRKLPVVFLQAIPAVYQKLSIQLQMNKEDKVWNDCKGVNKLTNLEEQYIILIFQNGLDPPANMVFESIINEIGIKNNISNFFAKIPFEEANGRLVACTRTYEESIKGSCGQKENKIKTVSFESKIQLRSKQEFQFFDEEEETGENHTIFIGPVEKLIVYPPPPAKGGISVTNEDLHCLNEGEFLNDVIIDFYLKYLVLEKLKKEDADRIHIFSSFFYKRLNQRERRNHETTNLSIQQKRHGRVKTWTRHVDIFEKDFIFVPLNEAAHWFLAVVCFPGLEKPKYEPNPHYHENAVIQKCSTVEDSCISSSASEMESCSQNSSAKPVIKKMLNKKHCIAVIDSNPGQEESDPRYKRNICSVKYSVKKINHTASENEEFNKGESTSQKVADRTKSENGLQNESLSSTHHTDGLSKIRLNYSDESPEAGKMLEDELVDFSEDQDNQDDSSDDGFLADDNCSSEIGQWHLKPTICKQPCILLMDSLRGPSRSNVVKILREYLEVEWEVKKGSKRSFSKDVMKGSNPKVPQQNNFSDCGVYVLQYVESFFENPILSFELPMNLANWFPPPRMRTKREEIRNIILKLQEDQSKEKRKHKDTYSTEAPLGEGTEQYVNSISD

[5] = target: T5, Microphthalmia-associated transcription factor (Homo sapiens, UniProt O75030); experiment: reducers of TRPM1 reporter luminescence, concentration series – cell-based, SK-MEL-5, cherry-picked, set 3, MITF inhibitor project, dose response (AID 493073); assay type: functional;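 note: SK-MEL-5 melanoma cells with luciferase driven by the MITF target TRPM1 promoter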
T5 sequence (O75030 whole entry): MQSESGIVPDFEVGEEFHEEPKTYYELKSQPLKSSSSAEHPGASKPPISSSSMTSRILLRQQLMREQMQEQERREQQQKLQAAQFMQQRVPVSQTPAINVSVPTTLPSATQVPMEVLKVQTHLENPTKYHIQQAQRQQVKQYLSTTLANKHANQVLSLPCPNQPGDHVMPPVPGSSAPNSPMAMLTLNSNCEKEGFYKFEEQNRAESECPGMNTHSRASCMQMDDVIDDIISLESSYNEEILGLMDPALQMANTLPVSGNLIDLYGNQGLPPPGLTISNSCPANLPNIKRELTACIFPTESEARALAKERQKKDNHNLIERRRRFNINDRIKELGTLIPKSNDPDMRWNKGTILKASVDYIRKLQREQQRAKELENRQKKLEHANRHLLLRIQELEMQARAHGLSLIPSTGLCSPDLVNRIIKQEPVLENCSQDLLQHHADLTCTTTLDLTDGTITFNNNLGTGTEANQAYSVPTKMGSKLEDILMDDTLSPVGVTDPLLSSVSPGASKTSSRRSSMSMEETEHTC

[6] = Fluorescence-based cell-based high throughput dose response assay for inhibitors of the interaction of nucleotide-binding oligomerization domain containing 2 (NOD2) and the receptor-interacting serine-threonine kinase 2 (RIPK2).; assay type: functional, Homo sapiens
Vero [7] = experiment: cells; assay type: functional; settings: Chlorocebus sabaeus
Vero [8] = experiment: cells; assay type: functional, cell-based; settings: Chlorocebus sabaeus
[9] = reduced cellular PGC1a acetyl-lysine signal – cell-based, cherry-picked samples, dose response (AID 720514); assay type: functional;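 note: potency may reflect raised or lowered acetylation signal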
[10] = Luminescence Cell-Based Dose Retest to Confirm Inhibitors of Cancer Stem Cells. [Related pubchem assays (depositor defined):AID2717, AID2721]; assay type: functional; settings: Homo sapiens
[11] = viability of HCT116 lacking mutant beta-catenin – cell-based, human colon tumor, dose response (AID 1045); assay type: functional;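 note: HCT116 colon tumor cells with beta catenin knocked out; cells exposed to compound for 60 hours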
Protein RecA = target: T6, Protein RecA (Mycobacterium tuberculosis, UniProt P9WHJ3); experiment: Fluorescence Cell-Free Homogeneous Dose Retest to Identify Inhibitors of RecA-Intein Splicing Activity. [Related pubchem assays (depositor defined):AID2097, AID2223, AID489010, AID492950]; assay type: functional
T6 sequence (P9WHJ3 whole entry): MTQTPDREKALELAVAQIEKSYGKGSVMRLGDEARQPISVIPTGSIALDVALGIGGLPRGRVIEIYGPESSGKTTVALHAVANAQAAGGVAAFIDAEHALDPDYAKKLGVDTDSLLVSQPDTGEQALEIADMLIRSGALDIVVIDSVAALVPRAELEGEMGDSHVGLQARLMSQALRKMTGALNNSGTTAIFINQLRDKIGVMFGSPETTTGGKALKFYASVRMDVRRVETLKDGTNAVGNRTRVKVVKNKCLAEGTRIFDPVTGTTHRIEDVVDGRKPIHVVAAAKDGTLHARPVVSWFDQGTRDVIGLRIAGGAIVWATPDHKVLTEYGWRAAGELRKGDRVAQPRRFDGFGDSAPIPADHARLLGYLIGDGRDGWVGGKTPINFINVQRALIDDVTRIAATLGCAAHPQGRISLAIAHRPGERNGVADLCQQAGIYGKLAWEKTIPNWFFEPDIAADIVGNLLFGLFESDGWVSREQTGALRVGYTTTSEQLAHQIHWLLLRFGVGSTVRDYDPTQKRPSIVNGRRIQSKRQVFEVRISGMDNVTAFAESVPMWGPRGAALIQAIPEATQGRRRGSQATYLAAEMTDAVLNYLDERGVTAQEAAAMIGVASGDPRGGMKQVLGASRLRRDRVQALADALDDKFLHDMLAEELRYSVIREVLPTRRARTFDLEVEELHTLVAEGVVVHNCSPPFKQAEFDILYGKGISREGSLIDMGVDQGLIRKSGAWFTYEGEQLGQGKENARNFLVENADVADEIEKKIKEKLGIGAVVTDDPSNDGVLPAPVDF

[12] = viability of PTEN-deleted HCT116 cells – cell-based, HCT116 PTEN knockout, dose response (AID 1047); assay type: functional;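 note: HCT116 colon tumor cells with PTEN knocked out; cells exposed to compound for 60 hours before readout; potency for loss of cell viability measured by luminescence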
[13] = target: T7, Replicative DNA helicase DnaB (Mycobacterium tuberculosis, UniProt P9WMR3); experiment: DnaB intein splicing inhibitors, dose response, biochemical, cell-free fluorescence (AID 449749); assay type: functional
T7 sequence (P9WMR3 whole entry): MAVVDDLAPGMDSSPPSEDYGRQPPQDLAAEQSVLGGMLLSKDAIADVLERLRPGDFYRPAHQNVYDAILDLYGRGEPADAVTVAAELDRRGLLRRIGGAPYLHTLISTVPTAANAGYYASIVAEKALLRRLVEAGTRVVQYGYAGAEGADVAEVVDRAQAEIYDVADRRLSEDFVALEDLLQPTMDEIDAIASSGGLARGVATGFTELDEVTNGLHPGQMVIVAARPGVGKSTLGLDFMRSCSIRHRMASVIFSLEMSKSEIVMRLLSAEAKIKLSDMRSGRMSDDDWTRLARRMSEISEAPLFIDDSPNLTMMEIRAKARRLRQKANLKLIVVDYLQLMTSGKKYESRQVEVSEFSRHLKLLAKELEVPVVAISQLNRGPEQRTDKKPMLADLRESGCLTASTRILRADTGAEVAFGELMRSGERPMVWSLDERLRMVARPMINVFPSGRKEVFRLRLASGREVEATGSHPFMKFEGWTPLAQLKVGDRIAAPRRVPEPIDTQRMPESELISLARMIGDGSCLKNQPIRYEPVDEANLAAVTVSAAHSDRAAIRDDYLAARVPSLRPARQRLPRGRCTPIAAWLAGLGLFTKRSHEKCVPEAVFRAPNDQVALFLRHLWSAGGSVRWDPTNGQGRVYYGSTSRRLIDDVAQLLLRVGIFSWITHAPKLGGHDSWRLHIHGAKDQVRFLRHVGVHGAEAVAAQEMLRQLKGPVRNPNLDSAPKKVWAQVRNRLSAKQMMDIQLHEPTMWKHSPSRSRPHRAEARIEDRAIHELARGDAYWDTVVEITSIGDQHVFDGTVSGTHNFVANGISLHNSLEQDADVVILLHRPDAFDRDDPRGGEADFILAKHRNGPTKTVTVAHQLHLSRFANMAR

INS1 = experiment: INS-1E survival protection against cytokine death – cell-based, luminescence, retest, dose response (AID 449756); assay type: functional; settings: Rattus norvegicus;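 note: cell death triggered by IL-1 beta plus TNF-alpha plus IFN-gamma mixture; protective hits raise ATP signal compared with cytokine alone wells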

SMILES: C[C@@H]1CN([C@H](C)CO)C(=O)Cc2cc(NC(=O)Cc3ccccc3)ccc2O[C@@H]1CN(C)Cc1ccc(-c2ccccc2)cc1
- AC50 [1]: 6.35 µM (active)

SMILES: Cc1[nH]n(-c2ccccc2)c(=O)c1N=Nc1cccc(C(=O)O)c1
- IC50 [2]: 15.2 µM (active)
- IC50 (Caspase-3): > 100 µM (inactive)
- IC50 [3]: 35.5 µM (active)
- IC50 [4]: 21.5 µM (active)
- AC50 [5]: 8.07 µM (active)

SMILES: CC(=O)OCC12CC(OC(=O)CC(C)C)C(C)=CC1OC1C(O)C(OC(C)=O)C2(C)C12CO2 (centres undefined)
- IC50 [6]: 49.8 µM (inactive)

SMILES: C[C@@H]1CCCCO[C@H](CN(C)C(=O)Nc2ccccc2)[C@@H](C)CN([C@H](C)CO)C(=O)c2cc(NC(=O)Nc3ccc(C(F)(F)F)cc3)ccc2O1
- AC50 [1]: 4.2 µM (active)

SMILES: Cc1ccc(S(=O)(=O)N(C)C[C@H]2Oc3c(NC(=O)c4ccncc4)cccc3C(=O)N([C@H](C)CO)C[C@@H]2C)cc1
- AC50 [1]: 6.3 µM (active)

SMILES: Cc1n[nH]c(O)c1N=Nc1ccc(Br)c(Cl)c1
- IC50 [2]: 2.2 µM (active)
- IC50 (Caspase-3): 2.41 µM (active)
- IC50 [3]: 2.43 µM (active)
- IC50 [4]: 3.79 µM (active)

SMILES: O=C(NCc1cccnc1)/C(=C\c1ccc(-c2cccc(Cl)c2)o1)S(=O)(=O)c1ccccc1
- CC50 (Vero [7]): 9.17 µM (active)
- IC50 (Vero [8]): 22.8 µM (active)
- AC50 [9]: 15 µM (active)
- AC50 [10]: 2.35 µM (active)
- EC50 [11]: 2.86 µM (active)
- EC50 (Protein RecA): 17.8 µM (active)
- EC50 [12]: 3.2 µM (active)
- AC50 [13]: 13.7 µM (active)
- IC50 ([6]; Homo sapiens): 10.8 µM (inactive)
- AC50 (INS1): 7.76 µM (active)

SMILES: C[C@@H]1CN([C@@H](C)CO)C(=O)c2cccc(NS(=O)(=O)c3ccc(Cl)cc3)c2O[C@@H]1CN(C)Cc1ccc(-c2ccccc2)cc1
- AC50 [1]: 2.97 µM (active)
